Literature values in patent US11591601B2, “Methods for identification and modification of lncRNA associated with target genotypes and phenotypes” (The Broad Institute, Inc., priority 2017, dated 2023).

tested on: Factor VII; details: hepatocytes in vivo, Factor VII gene silencing model

Molecule	gene silencing potency series of LNP siRNA systems containing the lipid
1,2-dilinoleyloxy-keto-N,N-dimethyl-3-aminopropane [DLinKDMA]	DLinKC2-DMA>DLinKDMA>DLinDMA>>DLinDAP
CCCCC/C=C\C/C=C\CCCCCCCC(=O)OCC(CN(C)C)OC(=O)CCCCCCC/C=C\C/C=C\CCCCC (stereo not shown) [DLinDAP, 1,2-dilineoyl-3-dimethylammonium-propane]	DLinKC2-DMA>DLinKDMA>DLinDMA>>DLinDAP
CCCCC/C=C\C/C=C\CCCCCCCCOCC(CN(C)C)OCCCCCCCC/C=C\C/C=C\CCCCC (stereo not shown) [DLinDMA, 1,2-dilinoleyloxy-3-N,N-dimethylaminopropane]	DLinKC2-DMA>DLinKDMA>DLinDMA>>DLinDAP
CCCCC/C=C\C/C=C\CCCCCCCCC1(CCCCCCCC/C=C\C/C=C\CCCCC)OCC(CCN(C)C)O1 (stereo not shown) [DLinKC2-DMA, 1,2-dilinoleyl-4-(2-dimethylaminoethyl)[1,3]-dioxolane]	DLinKC2-DMA>DLinKDMA>DLinDMA>>DLinDAP
